The text below walks through data of publication PMC8132114 (ACS combinatorial science, 2019).

The test has as its target VH1 C110S. The format is binding, Variola major. To be noted: pH 6.2.

Each structure is given as a SMILES string. *1 amine or outer side, *2 acyl side, *3 side chain or, on linkers, in order; H or OH if unused. Where a SMILES comes first, the peptide text is derived from it. [ ]: non-standard residue; d: D form. The star is where a group is joined. X1 = O=C([C@H](CCON=Cc1c(Cl)cncc1Cl)N[*:1])[*:2]; Biotin = O=C1N[C@H]2[C@H](CS[C@H]2CCCCC(=O)*)N1; pY = N[C@@H](Cc1ccc(OP(=O)(O)O)cc1)C(=O)O; Ahx = NCCCCCC(=O)O

As a reminder, the Kd is the equilibrium constant for the complex coming apart. A high value points to lower affinity. In the case of `CC(C)[C@H](NC(=O)CCCCCNC(=O)CCCC[C@@H]1SC[C@@H]2NC(=O)N[C@@H]21)C(=O)N[C@@H](CC(=O)O)C(=O)N[C@@H](C)C(=O)N[C@@H](CC(=O)O)C(=O)N[C@@H](CCC(=O)O)C(=O)N[C@@H](Cc1ccc(OP(=O)(O)O)cc1)C(=O)N[C@@H](CCON=Cc1c(Cl)cncc1Cl)C(N)=O` [Peptide 6f-w202] ({Biotin-Ahx}-VDADE[pY][X1]-NH2), binding was characterised by a dissociation constant (Kd) of 73 ± 27 nM.
